Experimental findings from ChEMBL document CHEMBL1201862, “PubChem BioAssay data set” (2004) are described below.

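In this assay, cells in 96-well plates receive the compound at five concentrations for 48 hours. Endpoints are linearly interpolated between the surrounding concentrations. The concentration for 50% growth inhibition is given as GI50.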 Activity calls are given as the source filed them. No stated cut-off is given here; in the data, active = GI50 up to about 1.1 µM and inactive = higher.

Among the test systems are 786-0; A549; CCRF-CEM; COLO 205; DU-145; HL-60; HOP-92; KM12; MDA-MB-435; Malme-3M; OVCAR-4; OVCAR-5; PC-3; SF-295; SK-MEL-5; SN12C; SNB-75; SNB-78; U-251; UO-31.
What all share (assay): NCI anticancer screen, dose series, 48 h

Turning to `COc1ccc2nc3ccccc3c(NCCCCCCN(CCCl)CCCl)c2c1`, the GI50 in the test with 786-0 is 0.0161 µM (active); in the test with A549, 0.054 µM (active); in the test on CCRF-CEM it was 0.0107 µM (active); in the test with COLO 205, 0.014 µM (active); in the test on DU-145 it was 0.0817 µM (active); with HL-60, 0.0122 µM (active). In addition, the GI50 in the test with HOP-92 is 0.124 µM (active); in the test with KM12 it was 0.151 µM (active); in the test with MDA-MB-435, 0.0482 µM (active); with Malme-3M, 0.537 µM (active); with OVCAR-4 it was 0.158 µM (active); in the test on OVCAR-5 it was 0.45 µM (active). Moreover, the GI50 with PC-3 is 0.0514 µM (active); with SF-295, 0.0767 µM (active); in the test on SK-MEL-5 it was 0.304 µM (active); with SN12C, 0.0348 µM (active); with SNB-75, 0.108 µM (active); with SNB-78, 0.223 µM (active). The GI50 with U-251 is 0.0528 µM (active); in the test with UO-31 it was 0.123 µM (active).
For `Cc1cc(O)nc(NNC(C#N)c2cccc([N+](=O)[O-])c2)n1` (configuration not stated), the GI50 in the test on 786-0, in the test on A549, in the test with CCRF-CEM, in the test with COLO 205, in the test with HL-60 and in the test on HOP-92 was > 100 µM (inactive) throughout. The GI50 in the test on KM12, in the test on Malme-3M, in the test on OVCAR-4, in the test with OVCAR-5, with SF-295 and in the test on SK-MEL-5 was > 100 µM (inactive) throughout. Further, the GI50 with SN12C is > 100 µM (inactive); with SNB-75, 65.3 µM (inactive); with SNB-78, > 100 µM (inactive); in the test with U-251 it was > 100 µM (inactive); in the test with UO-31, 73.1 µM (inactive).
For `CC1=Nc2ccccc2SC(c2c(Cl)cccc2Cl)C1` (configuration not stated), the GI50 in the test with 786-0 was 0.454 µM (active); with A549, 1.88 µM (inactive); in the test with CCRF-CEM, 0.304 µM (active); in the test with COLO 205 it was 1.58 µM (inactive); with HL-60, 0.341 µM (active); with HOP-92, 1.82 µM (inactive). The GI50 with KM12 is 0.828 µM (active); in the test with Malme-3M, 1.61 µM (inactive); in the test on OVCAR-4 it was 1.98 µM (inactive); with OVCAR-5, 2.39 µM (inactive); in the test on SF-295, 1.34 µM (inactive); in the test with SK-MEL-5, 1.49 µM (inactive). Further, the GI50 with SN12C was 1.33 µM (inactive); in the test on SNB-75 it was 1.91 µM (inactive); in the test on SNB-78, 3.31 µM (inactive); with U-251 it was 0.345 µM (active); in the test on UO-31, 1.71 µM (inactive).
For `COc1ccc(/C(=N\NC(=O)C(N)=O)C(c2ccc(OC)cc2)C2(O)C(=O)Nc3c(Cl)cccc32)cc1` (configuration not stated), the GI50 in the test on 786-0 is 74.8 µM (inactive); with A549, > 100 µM (inactive); with CCRF-CEM, 50.1 µM (inactive); in the test on COLO 205, > 100 µM (inactive); in the test on HL-60 it was 26.9 µM (inactive); with HOP-92 it was > 100 µM (inactive). For the same compound, the GI50 in the test with KM12, in the test with Malme-3M, with OVCAR-4, in the test with OVCAR-5, with SF-295 and with SK-MEL-5 was > 100 µM (inactive) throughout. The GI50 in the test with SN12C, with SNB-75, in the test with SNB-78, in the test with U-251 and with UO-31 was > 100 µM (inactive) each time.
On to `CC/C(CC(=O)CCC(=O)Nc1ccccc1[N+](=O)[O-])=N/NC(=O)C[n+]1ccccc1`, for which the GI50 in the test on 786-0, with A549, in the test with CCRF-CEM, in the test with COLO 205, in the test on HL-60 and with HOP-92 was > 100 µM (inactive) each time. In addition, the GI50 in the test on KM12, in the test on Malme-3M, in the test with OVCAR-4, with OVCAR-5, in the test on SF-295 and with SK-MEL-5 was > 100 µM (inactive) each time. Further, the GI50 in the test on SN12C, with SNB-75, in the test with SNB-78, in the test on U-251 and in the test on UO-31 was > 100 µM (inactive) in each case.
As to `COc1cc([C@@H]2c3cc4c(cc3[C@@H](NC(=O)c3cccc(C#N)c3)C3COC(=O)[C@@H]32)OCO4)cc(OC)c1O` (some centres not stated), the GI50 with 786-0 is 0.703 µM (active); in the test on A549, 0.0178 µM (active); with CCRF-CEM it was 0.0841 µM (active); with COLO 205 it was 2.96 µM (inactive); with HL-60, 0.166 µM (active); in the test with HOP-92, 0.498 µM (active). The GI50 in the test on KM12 is 1.39 µM (inactive); with Malme-3M it was 0.65 µM (active); in the test on OVCAR-4, 16.7 µM (inactive); with OVCAR-5, 1.1 µM (active); in the test with SF-295 it was 0.372 µM (active); in the test on SK-MEL-5 it was 0.815 µM (active). Also, the GI50 in the test on SN12C was 0.229 µM (active); in the test on SNB-75, 0.433 µM (active); in the test with SNB-78, 9.33 µM (inactive); in the test with U-251, 0.155 µM (active); in the test on UO-31, 5.47 µM (inactive).
For the compound `CC(C)N(C(=O)C12CC3CC(CC(C3)C1)C2)C(C)C`, the GI50 in the test with 786-0, in the test on A549, in the test with CCRF-CEM, in the test on COLO 205, in the test with HL-60 and with HOP-92 was > 50 µM (inactive) throughout. Besides, the GI50 with KM12, in the test on Malme-3M, with OVCAR-4, with OVCAR-5, with SF-295 and in the test on SK-MEL-5 was > 50 µM (inactive) throughout. Also, the GI50 with SN12C, with SNB-75, with SNB-78, in the test on U-251 and with UO-31 was > 50 µM (inactive) in each case.
